Laboratory results taken from patent US20120040966A1, “ANTI-VIRAL COMPOUNDS, TREATMENT, AND ASSAY” (priority 2008, published 2012).
pEC50, pIC50: −log10 of the molar value. Where two headings read alike, the source gives them in different places.

What was measured:
[1] = test system: influenza strain A/VN/1203/2004 (H5N1); experiment: microbe, parasite or virus in culture; type: cell-based, Influenza A virus (H5N1)
[2] = test system: Madin Darby Canine Kidney (MDCK) cells; experiment: cells; type: cell-based; conditions: read-out: IC50 (toxicity)
[3] = Influenza A virus, H5N1, MDCK, 72 h, read-out: H5N1 EC50 (@ 50% Via)
[4] = Influenza A virus, H5N1, MDCK, 72 h, read-out: H5N1 EC50 (Inf Pt)
[5] = read-out: H5N1 EC50 (@ 50% Via)

Row | SMILES | pEC50 [1, 3] | pEC50 [1, 4] | pEC50 ([1]; read-out: H5N1 EC50 (Inf Pt)) | pIC50 ([2]; Canis lupus familiaris, MDCK) | pEC50 [1, 5] | pIC50 [2]
1 | COc1ccc(C2NC(=O)NC3=C2CCN(C(C)=O)c2ccccc23)cc1Br (stereo not shown) [28000A] | < 4.70 | – | – | – | – | –
2 | COc1ccc(C2NC(=O)NC3=C2CCN(C(=O)CO)c2ccccc23)cc1Br (stereo not shown) [28001A] | < 4.70 | – | – | – | – | –
3 | COc1ccc(C2NC(=O)NC3=C2CCN(C(=O)COC(C)=O)c2ccccc23)cc1Br (stereo not shown) [28002A] | < 4.70 | – | – | – | – | –
4 | Cc1cccc(C2NC(=O)NC3=C2CCc2ccccc23)c1 (stereo not shown) [compound 22081] | – | 6.26 | 6.28 | < 4.30 | – | –
5 | Cc1ccc(C2NC(=O)NC3=C2CCc2ccccc23)cc1C (stereo not shown) [compound 22082] | – | – | – | < 4.30 | – | –
6 | Cc1ccc(-c2nc(=O)[nH]c3c2Cc2ccccc2-3)cc1 [compound 22084] | < 4.30 | – | – | < 4.30 | – | –
7 | Oc1nc(-c2ccc3c(c2)OCO3)c2c(n1)-c1ccccc1CC2 [compound 22085] | – | – | – | < 4.30 | > 6.32 | –
8 | O=C1NC2=C(CCc3ccccc32)C(c2cccnc2)N1 (stereo not shown) [compound 22086] | < 4.30 | – | – | < 4.30 | – | –
9 | COc1cccc2c1CCc1c(-c3ccc(C)cc3)nc(O)nc1-2 [compound 22088] | – | – | – | < 4.30 | 4.81 | –
10 | Cc1ccc(-c2nc(O)nc3c2COc2ccccc2-3)cc1C [compound 22106] | < 4.30 | < 4.30 | – | < 4.30 | – | –
11 | COc1cccc(-c2nc(O)nc3c2COc2ccccc2-3)c1 [compound 22108] | < 4.30 | < 4.30 | – | < 4.30 | – | –
12 | Cc1cccc(-c2nc(O)nc3c2COc2ccccc2-3)c1 [compound 22110] | 4.98 | 5.07 | – | < 4.30 | – | –
13 | COc1cccc(C2NC(=O)NC3=C2CCc2c(OC)cccc23)c1 (stereo not shown) [compound 22111] | < 4.30 | < 4.30 | – | < 4.30 | – | –
14 | COc1cccc(-c2nc(O)nc3c2CCc2c(OC)cccc2-3)c1 [compound 22112] | < 4.30 | < 4.30 | – | < 4.30 | – | –
15 | COc1cccc2c1CCc1c(-c3ccc(C)c(C)c3)nc(O)nc1-2 [compound 22114] | 4.87 | – | – | < 4.30 | 5.04 | –
16 | COc1cc(C2NC(=O)NC3=C2CCc2ccccc23)cc(OC)c1OC (stereo not shown) [compound 22115] | < 4.30 | < 4.30 | – | < 4.30 | – | –
17 | COc1cc(-c2nc(O)nc3c2CCc2ccccc2-3)cc(OC)c1OC [compound 22116] | < 4.30 | < 4.30 | – | < 4.30 | – | –
18 | O=C1NC2=C(CCCc3ccccc32)C(c2ccc3c(c2)OCO3)N1 (stereo not shown) [compound 22117] | 5.32 | 5.54 | 5.40 | < 4.30 | 5.17 | –
19 | Oc1nc(-c2ccc3c(c2)OCO3)c2c(n1)-c1ccccc1CCC2 [compound 22118] | < 4.30 | < 4.30 | – | < 4.30 | – | –
20 | Nc1nc(-c2ccc3c(c2)OCO3)c2c(n1)-c1ccccc1CC2 [compound 22120] | < 4.30 | < 4.30 | – | < 4.30 | – | –
21 | Oc1nc(-c2ccc3c(c2)OCO3)c2c(n1)-c1ccccc1CC2 [compound 22122] | – | < 4.30 | – | – | < 4.30 | < 4.30

Row | SMILES | pEC50 [1, 3] | pEC50 [1, 4] | pEC50 ([1]; read-out: H5N1 EC50 (Inf Pt)) | pIC50 ([2]; Canis lupus familiaris, MDCK) | pEC50 [1, 5] | pIC50 [2]
22 | COc1cccc2c1CCc1c(-c3ccc(C)cc3)nc(O)nc1-2 [compound 22124] | – | < 4.30 | – | – | < 4.30 | < 4.30
23 | O=C1NC2=C(Cc3ccccc32)C(c2ccc3c(c2)OCO3)N1 (stereo not shown) [compound 22126] | < 4.30 | < 4.30 | – | < 4.30 | – | –
24 | COc1ccc(C2NC(=O)NC3=C2Cc2ccccc23)cc1 (stereo not shown) [compound 22127] | < 4.30 | < 4.30 | – | < 4.30 | – | –
25 | COc1ccc(-c2nc(O)nc3c2Cc2ccccc2-3)cc1 [compound 22128] | < 4.30 | < 4.30 | – | < 4.30 | – | –
26 | COc1ccc(C2NC(=O)NC3=C2COc2ccccc23)cc1 (stereo not shown) [compound 22129] | < 4.30 | < 4.30 | – | < 4.30 | – | –
27 | O=C1NC2=C(CCc3ccccc32)C(c2ccc(Cl)c(Cl)c2)N1 (stereo not shown) [compound 22130] | – | – | – | < 4.30 | – | –
28 | CC1CC2=C(NC(=O)NC2c2ccc3c(c2)OCO3)c2ccccc21 (stereo not shown) [compound 22342] | 6.14 | 6.41 | – | < 4.30 | – | –
29 | O=C1NC2=C(CCc3ccccc32)C(c2ccc3c(c2)OCCO3)N1 (stereo not shown) [compound 22343] | 4.34 | 4.50 | – | < 4.30 | – | –
30 | COc1ccc2c(c1)CCC1=C2NC(=O)NC1c1ccc2c(c1)OCO2 (stereo not shown) [compound 22344] | < 4.30 | < 4.30 | – | < 4.30 | – | –
31 | Cc1cccc(C2NC(=O)NC3=C2CCCc2ccccc23)c1 (stereo not shown) [compound 22345] | 4.73 | 4.87 | – | < 4.30 | – | –
32 | O=C1NC2=C(CCc3ccccc32)C(c2ccc3ccccc3c2)N1 (stereo not shown) [compound 22346] | ≤ 4.26 | < 4.30 | – | < 4.30 | – | –
33 | Nc1cccc(C2NC(=O)NC3=C2CCc2ccccc23)c1 (stereo not shown) [compound 22348] | < 4.30 | < 4.30 | – | < 4.30 | – | –
34 | Nc1ccc(C2NC(=O)NC3=C2CCc2ccccc23)cc1 (stereo not shown) [compound 22350] | 4.51 | 4.75 | – | < 4.30 | – | –
35 | COc1nc(-c2ccc3c(c2)OCO3)c2c(n1)-c1ccccc1CC2 [compound 22402] | 5.08 | 5.28 | 5.24 | < 4.30 | 4.84 | –
36 | Cn1c2c(c(-c3ccc4c(c3)OCO4)nc1=O)CCc1ccccc1-2 [compound 22403] | 5.28 | 5.77 | 5.70 | < 4.30 | 5.24 | –
37 | COc1ccc(C2NC(=O)NC3=C2CCc2ccccc23)cc1O (stereo not shown) [compound 22407] | < 4.30 | < 4.30 | – | < 4.30 | – | –
38 | COc1cc(C2NC(=O)NC3=C2CCc2ccccc23)ccc1O (stereo not shown) [compound 22408] | < 4.30 | < 4.30 | – | < 4.30 | – | –
39 | COc1ccc(C2NC(=O)NC3=C2CCc2ccccc23)c(OC)c1OC (stereo not shown) [compound 22410] | < 4.30 | < 4.30 | – | < 4.30 | – | –
40 | O=C1NC2=C(CCc3ccccc32)C(c2cccc3c2OCO3)N1 (stereo not shown) [compound 22411] | < 4.30 | < 4.30 | – | < 4.30 | – | –
41 | Oc1nc(-c2ccc3c(c2)OCO3)c2c(n1)-c1ccccc1OC2c1ccccc1 (stereo not shown) [compound 22422] | < 4.30 | < 4.30 | – | < 4.30 | – | –
42 | COc1cc(OC)cc(C2NC(=O)NC3=C2CCc2ccccc23)c1 (stereo not shown) [compound 22518] | 5.33 | 5.47 | – | < 4.30 | – | –

Row | SMILES | pEC50 [1, 3] | pEC50 [1, 4] | pEC50 ([1]; read-out: H5N1 EC50 (Inf Pt)) | pIC50 ([2]; Canis lupus familiaris, MDCK) | pEC50 [1, 5] | pIC50 [2]
43 | COc1cc(C2NC(=O)NC3=C2CSc2ccccc23)ccc1F (stereo not shown) [compound 22519] | – | 5.19 | – | < 4.30 | – | –
44 | COc1ccc(C2NC(=O)NC3=C2CSc2ccccc23)cc1F (stereo not shown) [compound 22523] | 6.12 | 6.26 | – | < 4.30 | – | –
45 | O=C1NC2=C(CCc3ccccc32)C(c2cc(Br)c(O)c(Br)c2)N1 (stereo not shown) [compound 22702] | < 4.40 | < 4.40 | – | < 4.40 | – | –
46 | Cc1cc(C2NC(=O)NC3=C2CCc2ccccc23)cc(C)c1O (stereo not shown) [compound 22705] | < 4.40 | 5.00 | – | < 4.40 | – | –
47 | COc1ccc(C2NC(=O)N(Cl)C3=C2CCc2ccccc23)cc1Br (stereo not shown) [compound 22707] | 6.72 | 6.73 | – | < 4.30 | – | –
48 | COc1ccc(C2NC(=O)N(O)C3=C2CCc2ccccc23)cc1Br (stereo not shown) [compound 22708] | 5.96 | < 6.02 | – | < 4.30 | – | –
49 | COc1ccc(-c2nc(=O)[nH]c3c2CCc2ccccc2-3)cc1Br [compound 22710] | < 4.30 | < 4.30 | – | < 4.30 | – | –
50 | COc1ccc(C2NC(=O)NC3=C2CNc2ccccc23)cc1Br (stereo not shown) [compound 23100] | 6.20 | 6.14 | – | < 4.40 | – | –
51 | COc1ccc(C2NC(=O)NC3=C2CN(C)c2ccccc23)cc1Br (stereo not shown) [compound 23101] | < 5.22 | < 5.22 | – | < 4.40 | – | –
52 | COc1ccc(C2NC(=O)NC3=C2CN(S(C)(=O)=O)c2ccccc23)cc1Br (stereo not shown) [compound 23207] | 4.54 | 4.51 | – | < 4.40 | – | –
53 | COc1ccc(C2NC(=O)NC3=C2CN(C(=O)c2ccncc2)c2ccccc23)cc1Br (stereo not shown) [compound 23208] | < 4.40 | < 4.40 | – | < 4.40 | – | –
54 | COc1ccc(C2NC(=O)Nc3c2cnc2ccccc32)cc1Br (stereo not shown) [compound 23273] | 5.68 | 5.80 | – | < 4.40 | – | –
55 | COc1ccc(C2NC(=O)NC3=C2CN(C(=O)CN)c2ccccc23)cc1Br (stereo not shown) [compound 24716] | 5.51 | 5.51 | – | < 4.40 | – | –
56 | CCN(CC)CC(=O)N1CC2=C(NC(=O)NC2c2ccc(OC)c(Br)c2)c2ccccc21 (stereo not shown) [compound 24719] | 5.92 | 5.92 | – | < 4.40 | – | –
57 | COc1ccc(C2NC(=O)NC3=C2CN(C(=O)C[n+]2ccccc2)c2ccccc23)cc1Br (stereo not shown) [compound 25009] | 5.15 | 5.15 | – | < 4.40 | – | –
58 | CCOC(=O)CCC(=O)N1CC2=C(NC(=O)NC2c2ccc(OC)c(Br)c2)c2ccccc21 (stereo not shown) [compound 25484] | < 4.70 | – | – | – | – | –
59 | COc1ccc(C2NC(=O)NC3=C2CN(C(=O)OCCO)c2ccccc23)cc1Br (stereo not shown) [compound 25575] | 5.33 | – | – | – | – | –
60 | COCCOC(=O)N1CC2=C(NC(=O)NC2c2ccc(OC)c(Br)c2)c2ccccc21 (stereo not shown) [compound 25576] | < 4.70 | – | – | – | – | –
61 | CCOC(=O)N1CC2=C(NC(=O)NC2c2ccc(OC)c(Br)c2)c2ccccc21 (stereo not shown) [compound 25577] | < 4.70 | < 4.70 | – | – | – | –
62 | CCOC(=O)CCC(=O)N1CC2=C(NC(=O)NC2c2ccc(OC)c(Br)c2)c2ccccc21 (stereo not shown) [compound 25578] | – | < 5.00 | – | – | < 4.70 | –
